{"source": "patent US20260199383A1", "about": "(priority 2022, published 2026)", "key": {"[1]": {"details": "cited from earlier work"}, "CuFi-1 cells [2]": {"test_system": "CuFi-1 cells", "details": "cited from earlier work; for ASL pH / ΔpH: ref [1]; for ΔpH: vs vehicle control"}, "[3]": {"experiment": "Solubility of AmB in aqueous media", "type": "physicochemical", "details": "37° C."}, "CuFi-1 cells [4]": {"test_system": "CuFi-1 cells", "experiment": "Fluorescence microscopic assay of airway surface liquid (ASL) pH in CuFi-1 cells", "type": "cell-based, human", "method": "Cell Lines and Growth Conditions. NuLi, CuFi-1, and CuFi-4 cells (Welsh Laboratory, University of Iowa) were grown from cryostock on Thermo Scientific BioLite Cell Culture Treated 75 cm^2 flasks. These flasks were previously coated with 4 mL of 60 μg/mL human placental collagen type IV (Sigma-Aldrich) for a minimum of 1 h at 37° C., rinsed twice with PBS, and then dried before seeding. The cells were cultured with 12 mL Bronchial Epithelial Cell Growth Medium (BEGM) BulletKit (Lonza CC-3170), which includes the basal medium and eight SingleQuots of supplements (bovine pituitary extract (BPE), 2 mL; hydrocortisone, 0.5 mL; hEGF, 0.5 mL; adrenaline, 0.5 mL; transferrin, 0.5 mL; insulin, 0.5 mL; retinoic acid, 0.5 mL; triiodothyronine, 0.5 mL). The gentamicin-AmB aliquot was discarded, and the medium was instead supplemented with 50 μg/mL penicillin-streptomycin (Corning Cellgro), 50 μg/mL gentamicin (Sigma-Aldrich G1397), and 2 μg/mL fluconazole (Sigma-Aldrich). […]\nFluorescence Microscopic Assay for Measurement of Airway Surface Liquid pH. […] Following dissolution in methanol, the AmB concentration in the stock suspension was measured in triplicate by absorbance spectroscopy. Concentrations were calculated from the absorbance at 406 nm (8406=164,000 M^−1 cm^−1) using Beer's law. […]\nSmall-diameter NuLi and CuFi cells were used for measurement of the ASL pH. […] ASL pH was measured 2 h later. […]"}, "[5]": {"test_system": "primary cultured airway epithelial cells from individuals with CF", "details": "Primary human CF, 2 μM, ref [1], cited from earlier work"}, "CuFi-4 cells": {"test_system": "CuFi-4 cells", "details": "cited from earlier work"}, "[6]": {"experiment": "Particle size of wet-milled AmB suspensions (Malvern Mastersizer)", "type": "physicochemical"}}, "note": "Read-outs that look alike come from different tables or passages of the source.", "data": [{"smiles": "C[C@@H]1[C@H](O)[C@@H](C)/C=C/C=C/C=C/C=C/C=C/C=C/C=C/[C@H](O[C@@H]2O[C@H](C)[C@@H](O)[C@H](N)[C@@H]2O)C[C@@H]2O[C@](O)(C[C@@H](O)C[C@@H](O)[C@H](O)CC[C@@H](O)C[C@@H](O)CC(=O)O[C@H]1C)C[C@H](O)[C@H]2C(=O)O", "note": "[AmB, amphotericin B]", "values": [{"measurement": "pKa amine group on the mycosamine ring", "setting": "[1]", "value": 10.0}, {"measurement": "pKa carboxylate group", "setting": "[1]", "value": 5.7}, {"measurement": "ASL pH", "setting": "CuFi-1 cells [2]; CuFi-1, 2 μM", "value": 7.06}, {"measurement": "ΔpH", "setting": "CuFi-1 cells [2]; CuFi-1, 2 μM", "value": "+0.18"}, {"measurement": "ASL pH", "setting": "CuFi-1 cells [2]; CuFi-1, 50 μM", "value": 6.80}, {"measurement": "ΔpH", "setting": "CuFi-1 cells [2]; CuFi-1, 50 μM", "value": "+0.02"}, {"measurement": "solubility in Gamble's solution", "setting": "[3]", "value": 0.2, "unit": "µg/mL"}, {"measurement": "solubility in dilute Alveofact", "setting": "[3]", "value": 0.2, "unit": "µg/mL"}, {"measurement": "solubility in water", "setting": "[3]", "value": 0.5, "unit": "µg/mL"}, {"measurement": "effect on ASL pH", "setting": "CuFi-1 cells [4]; CuFi-1, 2 μM in perfluorocarbon vehicle", "value": "effective"}, {"measurement": "effect on ASL pH", "setting": "CuFi-1 cells [4]; CuFi-1, 50 μM AmB", "value": "not at a 50 μM AmB concentration"}, {"measurement": "ASL pH", "setting": "[5]", "value": 6.97}, {"measurement": "ΔpH", "setting": "[5]; vs vehicle control", "value": "+0.21"}]}, {"smiles": "CC(C)(C)c1cc(C(C)(C)C)c(NC(=O)c2c[nH]c3ccccc3c2=O)cc1O", "note": "[Ivacaftor, ivacaftor]", "values": [{"measurement": "ASL pH", "setting": "CuFi-4 cells; CuFi-4, 2 μM, ref [1]", "value": 6.92}, {"measurement": "ΔpH", "setting": "CuFi-4 cells; CuFi-4, 2 μM, vs vehicle control, ref [1]", "value": "+0.17"}, {"measurement": "increase in ASL pH", "setting": "CuFi-4 cells; CuFi-4 cells", "value": "about 0.2 pH units"}, {"measurement": "ASL pH", "setting": "CuFi-1 cells [2]; CuFi-1, 2 μM", "value": 6.82}, {"measurement": "ΔpH", "setting": "CuFi-1 cells [2]; CuFi-1, 2 μM", "value": "+0.07"}, {"measurement": "increase in ASL pH", "setting": "CuFi-1 cells [2]; CuFi-1 cells with homozygous ΔF508 mutations", "value": "minimal increase in ASL pH"}]}, {"smiles": "C[C@@H]1[C@H](O)[C@@H](C)/C=C/C=C/C=C/C=C/C=C/C=C/C=C/[C@H](O[C@@H]2O[C@H](C)[C@@H](O)[C@H](N)[C@@H]2O)C[C@@H]2O[C@](O)(C[C@@H](O)C[C@@H](O)[C@H](O)CC[C@@H](O)C[C@@H](O)CC(=O)O[C@H]1C)C[C@H](O)[C@H]2C(=O)O", "note": "[′202, amphotericin B]", "values": [{"measurement": "Primary Particle Size X50 after wet-milling", "setting": "[6]; 1 pass (15 kpsi)", "value": 3.01, "unit": "μm"}, {"measurement": "Primary Particle Size X90 after wet-milling", "setting": "[6]; 1 pass (15 kpsi)", "value": 6.93, "unit": "μm"}, {"measurement": "Primary Particle Size X50 after wet-milling", "setting": "[6]; 3 passes (15, 15, 20 kpsi)", "value": 2.16, "unit": "μm"}, {"measurement": "Primary Particle Size X90 after wet-milling", "setting": "[6]; 3 passes (15, 15, 20 kpsi)", "value": 5.99, "unit": "μm"}]}, {"smiles": "C[C@@H]1[C@H](O)[C@@H](C)/C=C/C=C/C=C/C=C/C=C/C=C/C=C/[C@H](O[C@@H]2O[C@H](C)[C@@H](O)[C@H](N)[C@@H]2O)C[C@@H]2O[C@](O)(C[C@@H](O)C[C@@H](O)[C@H](O)CC[C@@H](O)C[C@@H](O)CC(=O)O[C@H]1C)C[C@H](O)[C@H]2C(=O)O", "note": "[′203, amphotericin B]", "values": [{"measurement": "Primary Particle Size X50 after wet-milling", "setting": "[6]; 1 pass (15 kpsi)", "value": 1.14, "unit": "μm"}, {"measurement": "Primary Particle Size X90 after wet-milling", "setting": "[6]; 1 pass (15 kpsi)", "value": 2.46, "unit": "μm"}, {"measurement": "Primary Particle Size X50 after wet-milling", "setting": "[6]; 3 passes (15, 15, 20 kpsi)", "value": 1.06, "unit": "μm"}, {"measurement": "Primary Particle Size X90 after wet-milling", "setting": "[6]; 3 passes (15, 15, 20 kpsi)", "value": 2.14, "unit": "μm"}]}]}
